Calls of active or inactive are those of the source.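 Rule for the calls: active = EC50 no more than a set limit of log units above the highest dose; inactive = the rest.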
Target: S. pyogenes SKKanGAS, kanamycin survival, BacTiterGlo, 6 h
Experiment: SKKanGAS survival reduction under kanamycin, dose response, streptokinase promoter inhibitor project, SKKanGAS strain, luminescence, dose confirmation (AID 1902);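 note: lower survival reflects blocked streptokinase promoter driving kanamycin resistance gene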

| Compound | EC50 |
| --- | --- |
| C[C@]12CCC(O)CC1CCC1C2CC[C@]2(C)C(c3cc(C(F)(F)F)n[nH]3)CCC12 (some centres not stated) | 1.9 µM |
| CN(C)c1ccc(O)c2c1CC1CC3C(N(C)C)C(=O)C(C(N)=O)=C(O)[C@@]3(O)C(=O)C1=C2O (some centres not stated) | 0.096 µM |
| Cc1ccsc1C(=O)OCC(=O)c1cc2ccccc2o1 | > 15 µM (inactive) |
| Oc1ccc(-c2c(C3=CCCCC3)sc3ccccc23)cc1 | 4.97 µM |
| CCOC(=O)c1ccc(NC(=O)CC2S/C(=N/N=C/c3c[nH]c4ccccc34)NC2=O)cc1 (configuration not stated) | 7.73 µM |
| N#C/C(=C(/O)CCl)c1nc2c(s1)CCc1ccccc1-2 | 12.2 µM |
| O=C(Nc1nnc(C2CC2)o1)c1ccc(S(=O)(=O)N2CCCc3ccccc32)cc1 | 1.34 µM |
| CCCCNc1c(-c2ccc(SC3CCCCC3)cc2)nc2ccccn12 | 3.87 µM |
| CC(C)(C)[C@H]1CCC(=O)N([C@H](CSc2ccccc2)Cc2ccccc2)CC1 | 3.51 µM |
| CC1Oc2cc3c(-c4c(O)cc(O)c5c(O)c6c(cc45)OC(C)C(C)C6=O)c(O)cc(O)c3c(O)c2C(=O)C1C (configuration not stated) | 0.319 µM |
| COc1ccc(-c2nc(-c3cccs3)c(-c3cccs3)[nH]2)cc1OC | 4.32 µM |
| O=C(Cn1nc(CNc2ccc(Cl)cc2)[n+]2c1CCCCC2)c1ccc(Br)cc1 | 10.8 µM |
| Fc1ccc2nc(Nc3nc4cc5c(cc4s3)OCO5)sc2c1 | 2.63 µM |
| CC(C)NC(=O)NC(=O)CSc1nnc(COc2ccccc2F)n1C(C)C1CC2CCC1C2 (configuration not stated) | 6.58 µM |
| CCSc1n[nH]c2nc3c(c(=O)n12)C1(CCCC1)Cc1ccccc1-3 | 3.75 µM |
| CCOc1cc(/C=C2\C(=O)N(c3nc(-c4ccc(Br)cc4)cs3)N=C2c2ccccc2)ccc1O | 1.77 µM |
| O=C(Nc1cccc(NC(=O)c2ccccc2Cl)c1)c1ccc([N+](=O)[O-])o1 | 4.81 µM |
| CC(C)(C)c1ccc(OCC(=O)Nc2ccc(C(=O)Nc3ccccc3C(=O)O)cc2)cc1 | 1.54 µM |
| Cc1ccc2sc(NNC(=O)c3cc(-c4cccs4)nc4ccccc34)nc2c1C | 0.859 µM |
| C=C(C)C1Cc2c(C)nn(-c3cccc4ccccc34)c2C1 (configuration not stated) | 5.89 µM |
| CCC(NC(=S)NC1CCCCC1)c1ccc(C(C)C)cc1 (configuration not stated) | 5.2 µM |
| Cc1ccc(Cn2cc(/C=N/NC(=O)Cc3nnc(NC(=O)c4ccc(C)cc4)s3)c3ccccc32)cc1 | 4.24 µM |
| CC1(C)CC(=O)C2=C(C1)c1c(ccc3ccccc13)NC2c1cc([N+](=O)[O-])cc([N+](=O)[O-])c1O (configuration not stated) | 4.55 µM |
| Cc1nn(-c2ccccc2)c2c1C(c1ccc(O)c(O)c1)N1C(=N2)C(Nc2ccccc2)=Nc2ccccc21 (configuration not stated) | 1.36 µM |
| Cc1ccc(CN2CC(C(=O)Nc3nnc(SCc4c(Cl)cccc4Cl)s3)CC2=O)cc1 (configuration not stated) | 4.87 µM |
| CC(C)C(=O)NC(c1ccco1)c1ccc2cccnc2c1O (configuration not stated) | 2.44 µM |

| Compound | EC50 |
| --- | --- |
| COc1cnc(-c2ccccn2)nc1N(C)c1ccccc1 | 6.8 µM |
| Brc1ccccc1C1Nc2cccc3cccc(c23)N1 | 5.03 µM |
| C/C(=N\NC(=S)NCCc1ccccc1)c1ccc(Cl)cc1Cl | 6.56 µM |
| O=C(Nc1nc(-c2ccccn2)cs1)C12CC3CC(CC(O)(C3)C1)C2 | 1.44 µM |
| Nc1nc(NCc2ccco2)nc(N2CCCCCC2)c1[N+](=O)[O-] | 4.09 µM |
| Cc1ccccc1NC1=C/C(=N\S(=O)(=O)c2cccs2)c2ccccc2C1=O | 1.44 µM |
| COc1ccc(CC(=O)N/N=C/c2cc([N+](=O)[O-])cc(Br)c2O)cc1 | 4.91 µM |
| Fc1ccc(-c2cc(C(F)(F)F)nc(N3CCCCC3)n2)cc1 | 4.68 µM |
| COc1ccc2nc(Nc3nc4cc5c(cc4s3)OCO5)sc2c1 | 1.02 µM |
| CCOC(=O)c1c(NC(=S)NCCc2ccccc2)sc2c1CC(C(C)C)OC2 (configuration not stated) | 0.602 µM |
| Cc1[nH][nH]c(=O)c1C(c1c(C)[nH][nH]c1=O)c1cn(Cc2ccc(Cl)c(Cl)c2)c2ccccc12 | 3.07 µM |
| CCOP(=O)(Cc1ccc(C(=O)CC)o1)OCC | > 15 µM (inactive) |
| O=C(Cn1nnc(-c2ccccc2)n1)N/N=C/c1cc([N+](=O)[O-])ccc1O | 0.75 µM |
| CC1CCCC(C)N1c1nnc(NC(=O)c2cc(-c3ccc(Br)cc3)on2)s1 (configuration not stated) | 2.79 µM |
| Cc1ccc2[nH]c(O)c(N=NC(=O)c3ccc(NS(=O)(=O)c4cccs4)cc3)c2c1 | 1.25 µM |
| Cc1[nH]c2ccccc2c1C(=O)COC(=O)c1ccc2c(=O)n3c(nc2c1)CCC3 | 1.52 µM |
| CC1CCC(C(=O)c2c(O)c3ccccc3oc2=O)CC1 (configuration not stated) | 5.13 µM |
| CCn1cc(C(=O)OCC(=O)c2cc(C)n(-c3cccc(C(F)(F)F)c3)c2C)c(=O)c2ccc(C)nc21 | 9.92 µM |
| CCc1sc(N(C(=O)Cc2ccccc2)c2ccc(F)cc2)nc1-c1ccccc1 | 2.54 µM |
| CC(Oc1ccc(F)cc1)C(=O)Nc1ccccc1N1CCCCC1 (configuration not stated) | 5.01 µM |
| CC[C@H]1OC(=O)[C@H](C)[C@@H](O[C@H]2C[C@@](C)(OC)[C@@H](O)[C@H](C)O2)[C@H](C)[C@@H](O[C@@H]2O[C@H](C)C[C@H](N(C)C)[C@H]2O)[C@](C)(OC)C[C@@H](C)C(=O)[C@H](C)[C@@H](O)[C@]1(C)O | < 0.06 µM |
| CCCCCCCCCCOC(=O)Cn1c(COc2ccc(C)cc2)[n+](C)c2ccccc21 | 5.67 µM |
| C/C(=N\NC(=O)c1ccc(C)cc1)c1c(C)[nH]n(-c2ccccc2)c1=O | 2.15 µM |
| Cc1cccc2sc(NNC(=O)c3ccc(S(=O)(=O)N4CCCC(C)C4)cc3)nc12 (configuration not stated) | 0.31 µM |
| CCCCn1c(SCC(=O)c2ccccc2)nc2c1c(=O)[nH]c(=O)n2C | 3.43 µM |
| CC(C)c1c(C(=O)N/N=C/c2cccc(OCc3ccc(F)cc3)c2)nnn1-c1nonc1N | 5.19 µM |
